Target: human BCL6 BTB domain (Trx-6xHis-BCL6) (Homo sapiens (Human), UniProt P41182)
Assay: HTRF in vitro assay (BCL6 BTB domain / BCOR-AF633 peptide)
Assay type: binding
[1] = further generated data (Table 1b), 1 nM Trx-6xHis-BCL6, 0.5 nM anti-6xHis-Terbium cryptate
[2] = initially generated data (Table 1a), 10 nM Trx-6xHis-BCL6, 1 nM anti-6xHis-Terbium cryptate

Procedure: The % inhibition at each concentration was calculated by normalising FRET ratio to the appropriate high (DMSO with all reagents) and low (DMSO without BCL6) controls.

SMILES	HTRF pIC50 [1]	HTRF pIC50 [2]	IC50 (further generated data (Table 1b), 1 nM Trx-6xHis-BCL6, 0.5 nM anti-6xHis-Terbium cryptate, read-out: HTRF pIC50 (converted)) [µM]
CC(CCO)Nc1nc(=O)n(C)c2ccc(Nc3ccnc(Cl)c3C#N)cc12 (stereo not shown) [Example 1k, 2-chloro-4-[[4-[(3-hydroxy-1-methyl-propyl)amino]-1-methyl-2-oxo-quinazolin-6-yl]amino]pyridine-3-carbonitrile]	5.95	6.19	
CNC(=O)c1cc(Nc2ccc3c(c2)c(NC2(C#N)CC2)cc(=O)n3C)c(C#N)c(Cl)n1 [Example 24a, 6-chloro-5-cyano-4-((4-((1-cyanocyclopropyl)amino)-1-methyl-2-oxo-1,2-dihydroquinolin-6-yl)amino)-N-methylpicolinamide]	6.84		
COC1CCC1Nc1cc(=O)n(C)c2ccc(Nc3ccnc(Cl)c3C#N)cc12 (racemic) [Example 22b, rac-2-chloro-4-((4-(((1R,2S)-2-methoxycyclobutyl)amino)-1-methyl-2-oxo-1,2-dihydroquinolin-6-yl)amino)nicotinonitrile or rac-2-chloro-4-((4-(((1R,2R)-2-methoxycyclobutyl)amino)-1-methyl-2-oxo-1,2-dihydroquinolin-6-yl)amino)nicotinonitrile]			0.575
COCCOCC(C)Nc1cc(=O)n(C)c2ccc(Nc3ccnc(Cl)c3C#N)cc12 (stereo not shown) [Example 11g, 2-chloro-4-((4-((1-(2-methoxyethoxy)propan-2-yl)amino)-1-methyl-2-oxo-1,2-dihydroquinolin-6-yl)amino)nicotinonitrile]	6.05		
CC(Nc1cc(=O)n(C)c2ccc(Nc3cc(C(=O)O)nc(Cl)c3C#N)cc12)c1ncc(C2CC2)cn1 (stereo not shown) [Example 9p, 6-chloro-5-cyano-4-((4-((1-(5-cyclopropylpyrimidin-2-yl)ethyl)amino)-1-methyl-2-oxo-1,2-dihydroquinolin-6-yl)amino)picolinic acid]	7.25		
CC(Nc1cc(=O)n(Cc2ccccc2)c2ccc(Nc3cc(C(=O)O)nc(Cl)c3C#N)cc12)c1ncccn1 (stereo not shown) [Example 9q, 4-((1-benzyl-2-oxo-4-((1-(pyrimidin-2-yl)ethyl)amino)-1,2-dihydroquinolin-6-yl)amino)-6-chloro-5-cyanopicolinic acid]	6.81		
Cc1nc(N2CCC(C(=O)N(C)C)CC2)nc(Nc2ccc3c(c2)c(NC(C)(C)c2ncccn2)cc(=O)n3C)c1Cl [Example 16c, 1-(5-chloro-4-methyl-6-((1-methyl-2-oxo-4((2-(pyrimidin-2-yl)propan-2-yl)amino)-1,2-dihydroquinolin-6-yl)amino)pyrimidin-2-yl)-N,N-dimethylpiperidine-4-carboxamide]	6.36		
Cc1ccnc(C(C)Nc2cc(=O)n(C)c3ccc(Nc4ccnc(Cl)c4C#N)cc23)n1 (stereo not shown) [Example 1i, 2-chloro-4-[[1-methyl-4-[1-(4-methylpyrimidin-2-yl)ethylamino]-2-oxo-6-quinolyl]amino]pyridine-3-carbonitrile]	6.26	6.31	
CC(Nc1cc(=O)n(C)c2ccc(Nc3nc(N4CCC5(CCCN(C)C5=O)CC4)ncc3Cl)cc12)c1ncccn1 (stereo not shown) [Example 17g, 9-(5-chloro-4-((1-methyl-2-oxo-4((1-(pyrimidin-2-yl)ethyl)amino)-1,2-dihydroquinolin-6-yl)amino)pyrimidin-2-yl)-2-methyl-2,9-diazaspiro[5.5]undecan-1-one]	6.24		
COc1ncc(Cl)c(Nc2ccc3c(c2)c(N[C@H](CO)C2CC2)cc(=O)n3C)n1 [Example 11f, (S)-6-((5-chloro-2-methoxypyrimidin-4-yl)amino)-4-((1-cyclopropyl-2-hydroxyethyl)amino)-1-methylquinolin-2(1H)-one]	6.13		
Cc1nccc(Nc2ccc3c(c2)c(NC(C)c2ncccn2)cc(=O)n3C)c1C#N (stereo not shown) [Example 18a, 2-methyl-4-((1-methyl-2-oxo-4-((1-(pyrimidin-2-yl)ethyl)amino)-1,2-dihydroquinolin-6-yl)amino)nicotinonitrile]	6.30		
CCNc1cc(=O)n(CCN2C(=O)CCC2=O)c2ccc(Nc3ccnc(Cl)c3C#N)cc12 [Example 1r, 2-chloro-4-[[1-[2-(2,5-dioxopyrrolidin-1-yl)ethyl]-4-(ethylamino)-2-oxo-6-quinolyl]amino]pyridine-3-carbonitrile]	6.25	6.05	
CC(Nc1cc(=O)n(C)c2ncc(Nc3nc(N4CCC(F)(F)CC4)ncc3Cl)cc12)c1ncccn1 (stereo not shown) [Example 17b, 6-((5-chloro-2-(4,4-difluoropiperidin-1-yl)pyrimidin-4-yl)amino)-1-methyl-4-((1-(pyrimidin-2-yl)ethyl)amino)-4,/- naphthyridin-2(1H)-one]	6.11		
Cn1c(=O)cc(NC2(CO)CC2)c2cc(Nc3cc(C(=O)O)nc(Cl)c3C#N)ccc21 [Example 9k, 6-chloro-5-cyano-4-((4-((1-(hydroxymethyl)cyclopropyl)amino)-1-methyl-2-oxo-1,2-dihydroquinolin-6-yl)amino)picolinic acid]	6.35		
CC(Nc1cc(=O)n(C)c2ccc(Nc3cc(C(=O)O)nc(Cl)c3C#N)cc12)C1CC1 (stereo not shown) [Example 2a, 6-Chloro-5-cyano-4-[[4-(1-cyclopropylethylamino)-1-methyl-2-oxo-6-quinolyl]amino]pyridine-2-carboxylic acid]	6.85	6.78	
CC(Nc1cc(=O)n(C)c2ccc(Nc3nc(N4CCc5nn(C)cc5C4)ncc3Cl)cc12)c1ncccn1 (stereo not shown) [Example 17k, 6-((5-chloro-2-(2-methyl-2,4,6,7-tetrahydro-5H-pyrazolo[4,3-c]pyridin-5-yl)pyrimidin-4-yl)amino)-1-methyl-4-((1-(pyrimidin-2-yl)ethyl)amino)quinolin-2(1H)-one]	6.11		
CC(CO)Nc1nc(=O)n(C)c2ccc(Nc3ccnc(Cl)c3C#N)cc12 (stereo not shown) [Example 1l, 2-chloro-4-[[4-[(2-hydroxy-1-methyl-ethyl)amino]-1-methyl-2-oxo-quinazolin-6-yl]amino]pyridine-3-carbonitrile]	5.98	6.18	
C[C@@H](Nc1cc(=O)n(C)c2ncc(Nc3ccnc(Cl)c3Cl)cc12)C1CC1 [Example 6f, (R)-4-((1-cyclopropylethyl)amino)-6-((2,3-dichloropyridin-4-yl)amino)-1-methyl-1,8-naphthyridin-2(1H)-one]	6.21		
Cn1c(=O)cc(NC2(C)CCCC2)c2cc(Nc3cc(C(=O)O)nc(Cl)c3C#N)ccc21 [Example 2d, 6-chloro-5-cyano-4-[[1-methyl-4-[(1-methylcyclopentyl)amino]-2-oxo-6-quinolyl]amino]pyridine-2-carboxylic acid]	6.65	6.51	
C[C@H](CO)Nc1cc(=O)n(C)c2ccc(Nc3ccnc(Cl)c3C#N)cc12 [Example 3j, (R)-2-chloro-4-((4-((1-hydroxypropan-2-yl)amino)-1-methyl-2-oxo-1,2-dihydroquinolin-6-yl)amino)nicotinonitrile]	6.14	6.05	
Cn1c(=O)cc(NC(C)(C)c2ncc(C3CC3)cn2)c2cc(Nc3cc(C(=O)O)nc(Cl)c3C#N)ccc21 [Example 9a, 6-chloro-5-cyano-4-((4-((2-(5-cyclopropylpyrimidin-2-yl)propan-2-yl)amino)-1-methyl-2-oxo-1,2-dihydroquinolin-6-yl)amino)picolinic acid]	7.74		
COCCNC(=O)[C@@H](C)Nc1cc(=O)n(C)c2ccc(Nc3ccnc(Cl)c3C#N)cc12 [Example 3e, (R)-2-((6-((2-chloro-3-cyanopyridin-4-yl)amino)-1-methyl-2-oxo-1,2-dihydroquinolin-4-yl)amino)-N-(2-methoxyethyl)propanamide]	6.42	6.59	
Cn1cc(CNC(=O)C(C)(C)Nc2cc(=O)n(C)c3ccc(Nc4ccnc(Cl)c4C#N)cc23)cn1 [Example 11c, 2-((6--((2-chloro-3-cyanopyridin-4-yl)amino)-1-methyl-2-oxo-1,2-dihydroquinolin-4-yl)amino)-2-methyl-N-((1-methyl-1H-pyrazol-4-yl)methyl)propanamide]	6.42		
CC(Nc1cc(=O)n(C)c2ccc(Nc3ncnc(Cl)c3Cl)cc12)c1ncccn1 (stereo not shown) [Example 19e, 6-((5,6-dichloropyrimidin-4-yl)amino)-1-methyl-4-((1-(pyrimidin-2-yl)ethyl)amino)quinolin-2(1H)-one]	6.05		
CC(Nc1cc(=O)n(C)c2ccc(Nc3ccnc(Cl)c3C#N)cc12)c1nc[nH]n1 (stereo not shown) [Example 1e, 2-chloro-4-[[1-methyl-2-oxo-4-[1-(1H-1,2,4-triazol-3-yl)ethylamino]-6-quinolyl]amino]pyridine-3-carbonitrile]	6.08	6.50	
Cn1c(=O)cc(NC(C)(C)c2ncccn2)c2cc(Nc3cc(C(=O)O)nc(Cl)c3C#N)ccc21 [Example 9f, 6-chloro-5-cyano-4-((1-methyl-2-oxo-4-((2-(pyrimidin-2-yl)propan-2-yl)amino)-1,2-dihydroquinolin-6-yl)amino)picolinic acid]	7.65		
C[C@@H]1CN(c2ncc(Cl)c(Nc3ccc4c(c3)c(N[C@H](C)C3CC3)cc(=O)n4C)n2)C[C@H](C)O1 [Example 17d, 6-((5-chloro-2-((2S,6R)-2,6-dimethylmorpholino)pyrimidin-4-yl)amino)-4-(((R)-1-cyclopropylethyl)amino)-1-methylquinolin-2(1H)-one:formic acid (1:1)]	6.19		
CCNC(=O)C(C)(C)Nc1cc(=O)n(C)c2ccc(Nc3ccnc(Cl)c3C#N)cc12 [Example 3h, 2-((6-((2-Chloro-3-cyanopyridin-4-yl)amino)-1-methyl-2-oxo-1,2-dihydroquinolin-4-yl)amino)-N-ethyl-2-methylpropanamide]	6.41	6.40	
Cn1c(=O)cc(N[C@H]2CCOC2)c2cc(Nc3ccnc(Cl)c3C#N)ccc21 [Example 1g, 2-chloro-4-[[1-methyl-2-oxo-4-[[(3S)-tetrahydrofuran-3-yl]amino]-6-quinolyl]amino]pyridine-3-carbonitrile]	6.13	6.10	

— patent publication US11161839B2, “2-quinolone derived inhibitors of BCL6” (Cancer Research Technology Limited, priority 2017, dated 2021)
